Laboratory results: US11667602B2, “Compounds and their use” (AstraZeneca AB, priority 2020, dated 2023)
Converted amounts (≈) assume the structure as drawn. Where two headings read alike, the source gives them in different places.

What was measured:
[1] = Human Liver Microsomal Stability (Test C); format: in vitro ADME; details: human, liver microsomes
Procedure, shortened: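 Human liver microsome incubation per the Wernevik et al. integrated DMPK panel protocol. Intrinsic clearance reported as CLint in μl/min/mg protein, averaged arithmetically over repeat runs.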

[2] = Rat Hepatocyte Stability (Test E); format: in vitro ADME; details: rat, hepatocytes, geometric mean if run multiple times
Procedure, shortened: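 Run per the published AstraZeneca-type rat hepatocyte stability protocol (Wernevik et al. panel). Values are mean intrinsic clearance, Clint in μl/min/10^6 cells; geometric mean used for repeated runs.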

Solubility (Test F) = format: physicochemical; details: arithmetic mean if run multiple times
Protocol: The assay was conducted according to the Solubility Assay described in pages 164-167 of Wernevik, J. et al., “A Fully Integrated Assay Panel for Early Drug Metabolism and Pharmacokinetics Profiling”, Assay and Drug Development Technologies, 2020, 18(4), 157-179. Data are reported in Table 36 as solubility ([…]. Where the assay was run multiple times for the same compound, the arithmetic mean is reported.

[3] = Human Plasma Protein Binding (Test B); format: in vitro ADME; details: fraction unbound (fu)
Procedure, shortened: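 Human plasma protein binding run per the published Wernevik et al. (2020) integrated DMPK panel protocol. Values are fraction unbound (fu, % free); repeat runs averaged arithmetically.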

[4] = Human Hepatocyte Stability (Test D); format: in vitro ADME; details: human, cryopreserved pooled human hepatocytes (LiverPool 10-Donor), geometric mean if run multiple times
Procedure, shortened: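 Pooled 10-donor cryopreserved human hepatocytes (≥80% viable) in L-15 medium at 0.25×10^6 cells per 0.25 mL well. Compound added from 100 μM acetonitrile solution; incubated at 37 °C with shaking, acetonitrile-quenched, LC-MS analysed. Clint (μL/min/10^6 cells) from ln % parent vs time slope; geometric mean of repeat runs.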

human RXFP1 = molecular target: T1, human RXFP1 (Homo sapiens, UniProt Q9HBX9); assay: RXFP1 Hu cAMP (Test A); format: cell-based; parameters: expressed in transfected cells; host or cells: Jump-In T-REx CHO-K1 cells (ThermoFisher), induced with 10 ng/ml doxycycline for 24 h
T1 sequence (Q9HBX9 1-757): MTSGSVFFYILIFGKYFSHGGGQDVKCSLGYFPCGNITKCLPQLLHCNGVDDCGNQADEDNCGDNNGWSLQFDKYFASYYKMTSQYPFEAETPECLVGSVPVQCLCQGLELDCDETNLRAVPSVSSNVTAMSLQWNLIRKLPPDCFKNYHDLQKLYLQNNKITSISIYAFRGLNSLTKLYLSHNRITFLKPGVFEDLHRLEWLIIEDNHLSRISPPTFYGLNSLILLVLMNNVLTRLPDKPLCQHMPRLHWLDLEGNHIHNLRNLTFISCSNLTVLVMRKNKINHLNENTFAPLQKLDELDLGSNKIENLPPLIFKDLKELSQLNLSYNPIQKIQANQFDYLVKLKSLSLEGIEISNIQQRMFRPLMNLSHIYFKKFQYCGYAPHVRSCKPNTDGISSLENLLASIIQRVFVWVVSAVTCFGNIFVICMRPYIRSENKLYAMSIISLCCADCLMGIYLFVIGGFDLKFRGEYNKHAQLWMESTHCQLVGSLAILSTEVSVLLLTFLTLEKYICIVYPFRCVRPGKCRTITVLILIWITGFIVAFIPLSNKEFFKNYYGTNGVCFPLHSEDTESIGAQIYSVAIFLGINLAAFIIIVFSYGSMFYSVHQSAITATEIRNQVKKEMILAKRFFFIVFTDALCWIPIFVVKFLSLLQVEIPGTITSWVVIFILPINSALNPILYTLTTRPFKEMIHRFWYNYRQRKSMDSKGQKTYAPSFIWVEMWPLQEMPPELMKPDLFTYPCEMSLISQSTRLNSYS
Procedure, shortened: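 Cells: CHO-K1 stably carrying human RXFP1, expressed after 24 h 10 ng/ml doxycycline; 0.5 mM IBMX final, HTRF detection after 2 h at room temperature.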

[5] = RXFP1 Hu cAMP, read-out: Test A EC50

| SMILES | microsomal CLint [1] | hepatocyte CLint [2] | solubility (Solubility (Test F)) | Test B Human Plasma Protein Binding (% free) [3] | hepatocyte CLint at 1 µM [4] | Test A Sinf (human RXFP1; RXFP1 Hu cAMP) | EC50 (human RXFP1; [5]) | EC50 (human RXFP1; Test A EC50, RXFP1 Hu cAMP) |
| --- | --- | --- | --- | --- | --- | --- | --- | --- |
| COc1cc(F)c(O[C@H]2CC[C@@](C)(C(=O)O)CC2)cc1C(=O)N[C@@H]1CCC[C@]1(F)C(=O)Nc1cccc(S(=O)(=O)C(F)(F)F)c1 [Example 355] | 32 µL/min/mg | 19 µL/min/1e6 cells | 430 µM (≈ 285 µg/mL) | 2.1 % free | 8 µL/min/1e6 cells | 114% | 37 nM | – |
| COc1cc(Cl)c(O[C@H]2CC[C@@](C)(C(=O)O)CC2)cc1C(=O)N[C@@H]1[C@H]2CC[C@H](C2)[C@@H]1C(=O)NC12CC(F)(C1)C2 [Example 411] | 7.9 µL/min/mg | 17 µL/min/1e6 cells | 710 µM (≈ 400 µg/mL) | 1.8 % free | 2.1 µL/min/1e6 cells | 108% | 24 nM | – |
| COc1cc(C#N)c(O[C@H]2CC[C@@](C)(C(=O)O)CC2)cc1C(=O)N[C@@H]1[C@@H]2CC[C@@H](C2)[C@@H]1C(=O)NCC(C)(C)C(F)(F)F [Example 502, (1S,4s)-4-(2-Cyano-4-methoxy-5-(((1R,2R,3S,4S)-3-((3,3,3-trifluoro-2,2-dimethylpropyl)carbamoyl)bicyclo[2.2.1]heptan-2-yl)carbamoyl)phenoxy)-1-methylcyclohexane-1-carboxylic acid] | < 4.5 µL/min/mg | 7.2 µL/min/1e6 cells | 910 µM (≈ 540 µg/mL) | 4 % free | 5.3 µL/min/1e6 cells | 106% | 8.5 nM | – |
| Cc1cc(F)c(O[C@H]2CC[C@@](C)(C(=O)O)CC2)cc1C(=O)N[C@@H]1[C@H]2CC[C@H](C2)[C@@H]1C(=O)NCC1(C)CCC1 [Example 5, (1S,4s)-4-(2-Fluoro-4-methyl-5-(((1S,2R,3S,4R)-3-(((1-methylcyclobutyl)methyl)carbamoyl)bicyclo[2.2.1]heptan-2-yl)carbamoyl)phenoxy)-1-methylcyclohexane-1-carboxylic acid] | 16 µL/min/mg | 11 µL/min/1e6 cells | 800 µM (≈ 423 µg/mL) | 2.4 % free | 15 µL/min/1e6 cells | 85% | – | > 1700 nM |
| COc1cc(C#N)c(O[C@H]2CC[C@@](C)(C(=O)O)CC2)cc1C(=O)N[C@@H]1[C@H]2CC[C@H](C2)[C@@H]1C(=O)NC(C)(C)CF [Example 77] | 4 µL/min/mg | 12 µL/min/1e6 cells | 650 µM (≈ 353 µg/mL) | 21 % free | 3.7 µL/min/1e6 cells | 108% | – | – |
| COc1cc(F)c(-c2cnn(CC(=O)O)c2)cc1C(=O)N[C@H]1[C@@H](C(=O)Nc2cccc(S(=O)(=O)C(F)(F)F)c2)[C@@H]2C=C[C@H]1C2 [Example 271, 2-(4-(2-Fluoro-4-methoxy-5-(((1R,2R,3S,4S)-3-((3-((trifluoromethyl)sulfonyl)phenyl)carbamoyl)bicyclo[2.2.1]hept-5-en-2-yl)carbamoyl)phenyl)-1H-pyrazol-1-yl)acetic acid] | < 3 µL/min/mg | 7 µL/min/1e6 cells | 920 µM (≈ 586 µg/mL) | 0.81 % free | 3.7 µL/min/1e6 cells | 98% | – | – |
| COc1cc(C#N)c(-c2ccc(OCC(=O)O)cc2)cc1C(=O)N[C@@H]1[C@H]2CC[C@H](C2)[C@@H]1C(=O)Nc1cccc(S(=O)(=O)C(F)(F)F)c1 [Example 329, 2-((2′-Cyano-4′-methoxy-5′-(((1S,2R,3S,4R)-3-((3-((trifluoromethyl)sulfonyl)phenyl)carbamoyl)bicyclo[2.2.1]heptan-2-yl)carbamoyl)-[1,1′-biphenyl]-4-yl)oxy)acetic acid] | 30 µL/min/mg | 26 µL/min/1e6 cells | 1000 µM (≈ 672 µg/mL) | 0.81 % free | 5.6 µL/min/1e6 cells | 108% | 140 nM | – |
| COc1cc(F)c(O[C@H]2CC[C@@H](C(=O)O)CC2)cc1C(=O)N[C@@H]1[C@H]2CC[C@H](C2)[C@@H]1C(=O)Nc1cccc(C(F)F)c1 [Example 10, (1S,4s)-4-(5-(((1S,2R,3S,4R)-3-((3-(Difluoromethyl)phenyl)carbamoyl)bicyclo[2.2.1]heptan-2-yl)carbamoyl)-2-fluoro-4-methoxyphenoxy)cyclohexane-1-carboxylic acid] | 32 µL/min/mg | 130 µL/min/1e6 cells | 750 µM (≈ 431 µg/mL) | 2.2 % free | 11 µL/min/1e6 cells | 104% | 500 nM | – |
| COc1cc(F)c(O[C@H]2CC[C@@](C)(C(=O)O)CC2)cc1C(=O)Nc1ccc(C)cc1C(=O)NCC1(C)CCC1 [Example 216, (1s,4s)-4-(2-Fluoro-4-methoxy-5-((4-methyl-2-(((1-methylcyclobutyl)methyl)-carbamoyl)phenyl)carbamoyl)phenoxy)-1-methylcyclohexane-1-carboxylic acid] | < 3 µL/min/mg | 19 µL/min/1e6 cells | 3.1 µM (≈ 1.68 µg/mL) | 0.64 % free | 4.2 µL/min/1e6 cells | 132% | 210 nM | – |

The next lines start with results.

| microsomal CLint [1] | hepatocyte CLint [2] | solubility (Solubility (Test F)) | Test B Human Plasma Protein Binding (% free) [3] | hepatocyte CLint at 1 µM [4] | Test A Sinf (human RXFP1; RXFP1 Hu cAMP) | EC50 (human RXFP1; [5]) | SMILES | EC50 (human RXFP1; Test A EC50, RXFP1 Hu cAMP) |
| --- | --- | --- | --- | --- | --- | --- | --- | --- |
| < 3 µL/min/mg | 13 µL/min/1e6 cells | 17 µM (≈ 11.1 µg/mL) | <0.31 % free | 7.7 µL/min/1e6 cells | 112% | 480 nM | COc1cc(F)c(-c2ccc(F)c(C(=O)O)c2)cc1C(=O)N[C@H]1[C@@H](C(=O)Nc2cccc(S(=O)(=O)C(F)(F)F)c2)[C@@H]2C=C[C@H]1C2 (racemic) [Example 231] | – |
| 26 µL/min/mg | 12 µL/min/1e6 cells | 1000 µM (≈ 653 µg/mL) | 2 % free | 13 µL/min/1e6 cells | 101% | 550 nM | COc1cc(F)c(-c2cnn(CCC(=O)O)c2)cc1C(=O)N[C@@H]1[C@H]2CC[C@H](C2)[C@@H]1C(=O)Nc1cccc(S(=O)(=O)C(F)(F)F)c1 [Example 255] | – |
| 13 µL/min/mg | 24 µL/min/1e6 cells | 930 µM (≈ 511 µg/mL) | 5.3 % free | 2.6 µL/min/1e6 cells | 110% | 37 nM | COc1cc(Cl)c(O[C@H]2CC[C@@](C)(C(=O)O)CC2)cc1C(=O)N[C@@H]1[C@H]2CC[C@H](C2)[C@@H]1C(=O)NCC(C)(C)C [Example 412] | – |
| 8.7 µL/min/mg | 22 µL/min/1e6 cells | 810 µM (≈ 436 µg/mL) | 13 % free | 4.9 µL/min/1e6 cells | 133% | 55 nM | COc1cc(C#N)c(O[C@H]2CC[C@@](C)(C(=O)O)CC2)cc1C(=O)N[C@@H]1[C@H]2CC[C@H](C2)[C@@H]1C(=O)NCC1(C)CC1 [Example 98] | – |
| 12 µL/min/mg | 7.5 µL/min/1e6 cells | 460 µM (≈ 314 µg/mL) | <0.070 % free | 5.7 µL/min/1e6 cells | 108% | 0.49 nM | COc1cc(F)c(O[C@H]2CC[C@@](C)(C(=O)O)CC2)cc1C(=O)NC1C2CCC(C2)C1C(=O)Nc1ccc(F)c(S(F)(F)(F)(F)F)c1 (single isomer, unassigned) [Example 520, (1R,4s)-4-(2-Fluoro-5-(((1S*,2S*,3R*,4R*)-3-((4-fluoro-3-(pentafluoro-λ6-sulfaneyl)phenyl)carbamoyl)bicyclo[2.2.1]heptan-2-yl)carbamoyl)-4-methoxyphenoxy)-1-methylcyclohexane-1-carboxylic acid] | – |
